Measured values from US20060148832A1, “Use of 2-amino-2h-quinazoline derivatives for producing therapeutic agents” (priority 2003, published 2006).

Experiments:
[1] = Cyclization of the anagrelide prodrug to anagrelide in aqueous medium as a function of pH; assay type: physicochemical; settings: 37° C., after one hour
From the text: The 2-amino-2H-quinazoline derivatives according to the invention can be cyclized to the anagrelide in aqueous medium as a function of the pH without addition of other adjuvants or boiling under reflux for hours. […] A cyclization of the compound with the general chemical formula I in strongly acidic pH range, as prevails, for example, in the stomach of mammals, has only been detected up to a certain small percentage.
(§1) For the cyclization, 0.3 mmol of the anagrelide prodrug methyl-(2-amino-5,6-dichloro-2H-quinazolin-3-yl) acetate hydrochloride (analysis: UV-Maxima 217,262 nm; MW 324.59; mp>250° C.), corresponding to the general formula I, wherein R1 indicates an alkyl group with one carbon atom, R2 and R3 each indicate a hydrogen atom, and R4 and R5 each indicate a chlorine atom, was added to 10 ml of an aqueous hydrochloric acid solution (0.1 M HCl), at 37° C. with slight stirring. After one hour, 9.6% of the prodrug was converted to anagrelide. [drawing 2]
as §1, with “(MW 324.59)” for “(analysis: UV-Maxima 217,262 nm; MW 324.59; mp>250° C.),”, “pH-neutral water,” for “an aqueous hydrochloric acid solution (0.1 M HCl),”, “58%” for “9.6%”, “anagrelide.” for “anagrelide. [drawing 2]”
as §1, with “hydrochloride” for “hydrochloride (analysis: UV-Maxima 217,262 nm; MW 324.59; mp>250° C.),”, “basic” for “hydrochloric acid”, “NaOH),” for “HCl),”, “100%” for “9.6%”, “anagrelide.” for “anagrelide. [drawing 2]”
(§2) For the cyclization, 0.3 mmol of the anagrelide prodrug ethyl-(2-amino-5,6-dichloro-2H-quinazolin-3-yl) acetate hydrochloride hemihydrate, corresponding to the general formula I, wherein R1 indicates an alkyl group with two carbon atoms, R2 and R3 each indicate a hydrogen atom, and R4 and R5 each indicate a chlorine atom, was added to 10 ml of an aqueous basic solution (15 g of sodium hydrogen carbonate in 1 liter of water), at 37° C. with slight stirring. This basic solution was selected because it corresponds to a common test system for simulation of the milieu of the intestinal juice (pH between 8 and 10). After one hour, 100% of the prodrug was converted to anagrelide.
as §2, with “methyl-(2-amino-5,6-dichloro-2H-quinazolin-3-yl)” for “ethyl-(2-amino-5,6-dichloro-2H-quinazolin-3-yl)”, “one” for “two”, “atom,” for “atoms,”
as §2, with “hydrobromide (analysis: UV maxima 204, 216, 262 nm; mp 291-293,” for “hydrochloride hemihydrate,”

thrombocytes = settings: dose of 3 mg/day, after one week; cited from earlier work
[2] = anagrelide base; cited from earlier work
blood platelets = settings: mentioned in U.S. Pat. No. 4,146,718; cited from earlier work
[3] = 0.3 mmol in 10 ml aqueous basic solution (15 g sodium hydrogen carbonate in 1 liter water; simulated intestinal juice, pH between 8 and 10)

Methyl-(2-amino-5,6-dichloro-2H-quinazolin-3-yl) acetate hydrochloride hemihydrate
prodrug converted to anagrelide [1, 3]: 100%

Ethyl-(2-amino-5,6-dichloro-2H-quinazolin-3-yl) acetate hydrochloride hemihydrate
prodrug converted to anagrelide [1, 3]: 100%

O=C1CN2Cc3c(ccc(Cl)c3Cl)N=C2N1 [anagrelide, 6,7-dichloro-1,5-dihydroimidazo-[2,1-b]-quinazolin-2-[3H]-one]
decrease in thrombocytes (thrombocytes): approximately 50%
solubility in water [2]: difficultly soluble in water

COC(=O)CN1C=c2c(Cl)c(Cl)ccc2=NC1N.Cl (stereo not drawn) [Methyl-(2-amino-5,6-dichloro-2H-quinazolin-3-yl) acetate hydrochloride]
prodrug converted to anagrelide ([1]; 0.3 mmol in 10 ml aqueous basic solution (0.1 M NaOH)): 100%
prodrug converted to anagrelide ([1]; 0.3 mmol in 10 ml aqueous hydrochloric acid solution (0.1 M HCl)): 9.6%
prodrug converted to anagrelide ([1]; 0.3 mmol in 10 ml pH-neutral water): 58%

Br.CCOC(=O)CN1Cc2c(ccc(Cl)c2Cl)N=C1N [Ethyl-(2-amino-5,6-dichloro-2H-quinazolin-3-yl) acetate hydrobromide]
prodrug converted to anagrelide [1, 3]: 100%
effect on blood platelets (blood platelets): anti-aggregative effect on blood platelets
